Results from patent publication US20100137258A1, “THIOPHOSPHI(O)NIC ACID DERIVATIVES AND THEIR THERAPEUTICAL APPLICATIONS” (priority 2007, published 2010).
Where two headings read alike, the source gives them in different places.

What was measured:
mGlu4 = target: T1, mGlu4 (Rattus norvegicus, UniProt P31423); format: cell-based
T1 construct: expressed in transfected cells; host or cells: HEK293 (transient, electroporation)
Description: (§1) These receptors were transiently expressed in HEK-293 cells as previously described. Since group III mGlu receptors are not naturally coupled to phospholipase-C but rather inhibit adenylyl cyclase, receptors were co-transfected with a chimeric G-protein alpha subunit which is recognized by these receptors but effectively activates the phospholipase-C pathway. Thus, the functional assay consisted in measuring the total inositol phosphate production resulting from receptor activation (ref. 10, 11).
(§2) Cell culture and transfection. Pharmacological experiments were carried out using HEK293 cells. Cells were cultured in Dulbecco's modified Eagle's medium supplemented with 10% foetal calf serum (FCS) and antibiotics (Penicillin and Streptomycin, 100 U/mL final).
(§3) Cells were transiently transfected with rat clones of group-III mGlu receptors (mGlu4, mGlu6, mGlu7 and mGlu8) by electroporation as described elsewhere (ref. 6) and plated in 96-well microplates. The high affinity glutamate transporter EAAC1 was also co-transfected with the receptor in order to avoid any influence of glutamate released by the cells in the assay medium. Since group-III mGluRs activates naturally Gi/o-proteins which modulate the adenylyl-cyclase pathway, these receptors were co-transfected with a chimeric G-protein which is recognized by these receptors but couples to the phospholipase-C pathway, thus leading to inositol phosphate (IP) production following receptor activation (ref. 7). Receptor activity was then determined by measurement of the IP production.
(§4) Functional assay. Inositol phosphate determination experiments in 96-well microplates were performed as already described (ref. 15). Briefly, 6 h following transfection, cell medium was removed and replaced by fresh medium devoid of glutamate, not complemented with FCS, and that contained ^3H-myoinositol. Cells were incubated overnight in this medium. The following day, cells were rinsed and ambient glutamate degraded by incubation in presence of GPT. Cells were stimulated by agonist for 30 min then the medium was removed and cells incubated for 1 h with cold 0.1 M formic acid which induced cell lysis. The ^3H-IP produced following receptor stimulation were recovered by ion exchange chromatography using a Dowex resin (Biorad). […] All points are realized in triplicate.

mGlu8 = target: T2, mGlu8 (Rattus norvegicus, UniProt P70579); format: cell-based
T2 construct: expressed in transfected cells; host or cells: HEK293 (transient, electroporation)
Description: as §1, §2, §3, §4

mGlu6 = target: T3, mGlu6 (Rattus norvegicus, UniProt P35349); assay: Inositol phosphate production in transfected HEK293 cells, mGlu6; format: cell-based
T3 construct: expressed in transfected cells; host or cells: HEK293 (transient, electroporation)
Description: as §1, §2
(§5) Cells were transiently transfected with rat clones of group-III mGlu receptors (mGlu4, mGlu6, mGlu7 and mGlu8) by electroporation as described elsewhere (ref. 6) and plated in 96-well microplates. The high affinity glutamate transporter EAAC1 was also co-transfected with the receptor in order to avoid any influence of glutamate released by the cells in the assay medium. […] Receptor activity was then determined by measurement of the IP production. […]

mGlu7 = target: T4, mGlu7 (Rattus norvegicus, UniProt P35400); assay: Inositol phosphate production in transfected HEK293 cells, mGlu7; format: cell-based
T4 construct: expressed in transfected cells; host or cells: HEK293 (transient, electroporation)
Description: as §1, §2, §5

[1] = system: group I and II mGlu receptors; assay: Selectivity versus group I and II mGlu receptors; format: cell-based
mGlu1/5 receptors = assay: Effect at mGlu1/5 receptors; format: cell-based
[2] = 31P NMR chemical shift versus pH, 27° C.
Description: In order to compare them, the pKa values of these amino acids were evaluated. […] Indicated pKa3 values were calculated by non-linear regression analysis using GraphPad Prism program. In addition, the ^31P NMR chemical shifts of 1 and 4 are sensitive to the ionization state, thus titration curves may be obtained from their pH dependence (ref. 7-9) (FIG. 1B). […] The pKa1 and pKa2 values are too close to be determined from the titration curves, however pKa3 and pKa4 are easily measured. […]
Each ^31P NMR spectrum was acquired at 27° C. with external H3PO4 (95%) reference at 0 ppm (sealed capillary). […] A total of 27 spectra (1) or 23 spectra (4) were recorded over a pH range of 0.50-12.50 (1) or 0.51-12.56 (4). The P NMR chemical shifts of the dianionic and monoanionic forms of the (thio)phosphonate groups were plotted against measured pH. All pKa values were calculated by non-linear regression analysis using the GraphPad Prism program (GraphPad Software Inc., San Diego Calif.) and the equation pH=pKa−log[(δa−δ)/(δ−δb)] where δ is the ^31P NMR chemical shift at varying pH, δa and δb the ^31P NMR chemical shifts with titrating group in fully acidic or basic form respectively.

mGlu4R = mGlu4R (Homo sapiens, UniProt Q14833); settings: read-out: EC50 as mGlu4R agonist; background statement; cited from earlier work
mGlu2 receptor = mGlu2 receptor (Homo sapiens, UniProt Q14416); settings: described in the literature; cited from earlier work
group III mGlu receptors [3] = assay: Agonist activity across all group III mGlu receptor subtypes (summary); format: cell-based, rat
Description: as §1, §3
Functional assay. […]

group III mGlu receptors [4] = settings: cited from earlier work
[5] = agonist activity, IP production, HEK-293, mean ± SEM (n)

T4 sequence (P35400 35-915): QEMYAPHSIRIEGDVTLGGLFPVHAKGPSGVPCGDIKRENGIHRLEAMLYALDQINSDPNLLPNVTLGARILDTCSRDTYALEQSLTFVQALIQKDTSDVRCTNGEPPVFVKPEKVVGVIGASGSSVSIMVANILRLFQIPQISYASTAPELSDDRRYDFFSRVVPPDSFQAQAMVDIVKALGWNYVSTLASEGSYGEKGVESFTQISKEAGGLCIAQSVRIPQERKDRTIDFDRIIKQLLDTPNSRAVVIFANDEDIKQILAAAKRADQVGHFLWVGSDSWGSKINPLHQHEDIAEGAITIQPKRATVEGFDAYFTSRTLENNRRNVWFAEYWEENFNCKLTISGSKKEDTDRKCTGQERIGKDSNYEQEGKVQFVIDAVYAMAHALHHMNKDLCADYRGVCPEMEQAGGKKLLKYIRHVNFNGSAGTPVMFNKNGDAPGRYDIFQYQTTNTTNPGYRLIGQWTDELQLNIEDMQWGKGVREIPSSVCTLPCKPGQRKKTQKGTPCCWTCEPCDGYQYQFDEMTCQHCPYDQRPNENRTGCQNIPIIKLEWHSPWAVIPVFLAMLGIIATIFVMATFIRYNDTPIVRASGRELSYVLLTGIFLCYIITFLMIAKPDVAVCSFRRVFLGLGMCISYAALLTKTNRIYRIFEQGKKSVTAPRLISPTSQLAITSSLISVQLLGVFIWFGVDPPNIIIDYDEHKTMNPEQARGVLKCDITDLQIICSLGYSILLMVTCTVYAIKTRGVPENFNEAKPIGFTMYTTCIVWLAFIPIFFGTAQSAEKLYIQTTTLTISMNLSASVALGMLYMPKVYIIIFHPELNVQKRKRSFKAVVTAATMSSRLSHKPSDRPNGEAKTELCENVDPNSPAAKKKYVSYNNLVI
T1 sequence (P31423 33-912): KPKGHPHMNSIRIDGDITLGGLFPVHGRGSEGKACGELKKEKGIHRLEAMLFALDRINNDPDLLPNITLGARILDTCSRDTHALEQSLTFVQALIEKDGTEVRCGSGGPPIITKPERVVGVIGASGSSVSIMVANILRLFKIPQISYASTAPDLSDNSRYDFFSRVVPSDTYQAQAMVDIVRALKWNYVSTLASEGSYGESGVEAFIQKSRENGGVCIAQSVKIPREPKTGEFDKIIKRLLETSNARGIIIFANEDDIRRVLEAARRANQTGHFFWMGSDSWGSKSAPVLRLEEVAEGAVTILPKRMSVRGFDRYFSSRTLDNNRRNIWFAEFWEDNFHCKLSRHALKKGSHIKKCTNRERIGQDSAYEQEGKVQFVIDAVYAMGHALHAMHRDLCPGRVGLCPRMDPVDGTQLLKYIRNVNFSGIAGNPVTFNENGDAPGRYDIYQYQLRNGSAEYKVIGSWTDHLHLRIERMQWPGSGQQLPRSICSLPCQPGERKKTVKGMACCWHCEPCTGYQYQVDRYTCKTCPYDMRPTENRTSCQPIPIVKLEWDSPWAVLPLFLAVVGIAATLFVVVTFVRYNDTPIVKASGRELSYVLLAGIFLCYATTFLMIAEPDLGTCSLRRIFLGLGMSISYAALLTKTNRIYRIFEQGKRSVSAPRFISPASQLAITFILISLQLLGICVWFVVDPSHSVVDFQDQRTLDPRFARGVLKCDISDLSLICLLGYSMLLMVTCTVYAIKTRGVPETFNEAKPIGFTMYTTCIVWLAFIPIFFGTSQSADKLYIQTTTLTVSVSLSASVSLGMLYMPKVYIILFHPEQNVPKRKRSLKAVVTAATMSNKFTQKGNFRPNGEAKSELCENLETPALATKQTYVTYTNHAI
T3 sequence (P35349 24-871): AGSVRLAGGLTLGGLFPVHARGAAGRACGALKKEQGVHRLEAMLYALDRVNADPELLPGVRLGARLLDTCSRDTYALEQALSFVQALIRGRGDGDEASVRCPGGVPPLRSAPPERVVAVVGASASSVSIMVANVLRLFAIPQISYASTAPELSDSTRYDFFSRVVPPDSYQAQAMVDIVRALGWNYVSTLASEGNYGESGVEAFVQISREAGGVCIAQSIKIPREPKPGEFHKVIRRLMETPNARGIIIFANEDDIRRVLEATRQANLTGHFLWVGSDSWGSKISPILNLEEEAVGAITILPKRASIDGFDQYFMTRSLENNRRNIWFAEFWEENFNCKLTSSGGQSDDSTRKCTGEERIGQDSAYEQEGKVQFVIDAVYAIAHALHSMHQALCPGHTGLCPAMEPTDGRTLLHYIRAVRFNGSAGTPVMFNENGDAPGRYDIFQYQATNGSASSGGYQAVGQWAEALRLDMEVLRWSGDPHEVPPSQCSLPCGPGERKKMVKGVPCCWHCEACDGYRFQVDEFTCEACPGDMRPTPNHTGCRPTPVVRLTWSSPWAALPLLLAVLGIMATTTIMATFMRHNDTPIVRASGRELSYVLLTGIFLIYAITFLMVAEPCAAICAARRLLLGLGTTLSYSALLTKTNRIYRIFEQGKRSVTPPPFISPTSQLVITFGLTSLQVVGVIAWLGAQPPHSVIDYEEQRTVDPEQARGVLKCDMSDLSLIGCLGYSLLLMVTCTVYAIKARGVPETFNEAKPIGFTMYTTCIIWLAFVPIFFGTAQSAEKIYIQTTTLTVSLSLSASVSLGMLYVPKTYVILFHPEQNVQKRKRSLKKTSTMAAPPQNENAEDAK
T2 sequence (P70579 34-908): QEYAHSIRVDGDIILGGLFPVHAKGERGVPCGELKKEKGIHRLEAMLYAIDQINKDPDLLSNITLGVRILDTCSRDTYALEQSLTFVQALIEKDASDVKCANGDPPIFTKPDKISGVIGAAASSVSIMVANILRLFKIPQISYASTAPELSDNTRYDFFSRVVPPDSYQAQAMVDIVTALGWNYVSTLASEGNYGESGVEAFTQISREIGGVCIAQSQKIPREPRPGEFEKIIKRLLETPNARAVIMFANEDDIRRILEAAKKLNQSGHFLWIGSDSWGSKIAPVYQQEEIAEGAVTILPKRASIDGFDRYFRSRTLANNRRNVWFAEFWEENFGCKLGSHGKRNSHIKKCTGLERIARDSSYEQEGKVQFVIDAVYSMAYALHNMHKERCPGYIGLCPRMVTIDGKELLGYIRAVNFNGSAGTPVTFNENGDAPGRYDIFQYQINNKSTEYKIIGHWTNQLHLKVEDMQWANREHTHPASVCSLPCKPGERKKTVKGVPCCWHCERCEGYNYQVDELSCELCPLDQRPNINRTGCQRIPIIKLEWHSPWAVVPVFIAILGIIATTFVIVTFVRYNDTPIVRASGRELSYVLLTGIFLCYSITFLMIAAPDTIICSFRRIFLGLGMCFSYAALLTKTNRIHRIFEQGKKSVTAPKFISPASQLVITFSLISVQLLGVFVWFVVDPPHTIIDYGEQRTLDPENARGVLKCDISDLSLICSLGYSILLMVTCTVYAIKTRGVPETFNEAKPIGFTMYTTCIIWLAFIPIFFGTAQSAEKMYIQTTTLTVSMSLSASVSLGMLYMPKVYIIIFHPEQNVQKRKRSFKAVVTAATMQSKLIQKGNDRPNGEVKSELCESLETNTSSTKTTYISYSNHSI
mGlu4R, sequence (Q14833 33-912): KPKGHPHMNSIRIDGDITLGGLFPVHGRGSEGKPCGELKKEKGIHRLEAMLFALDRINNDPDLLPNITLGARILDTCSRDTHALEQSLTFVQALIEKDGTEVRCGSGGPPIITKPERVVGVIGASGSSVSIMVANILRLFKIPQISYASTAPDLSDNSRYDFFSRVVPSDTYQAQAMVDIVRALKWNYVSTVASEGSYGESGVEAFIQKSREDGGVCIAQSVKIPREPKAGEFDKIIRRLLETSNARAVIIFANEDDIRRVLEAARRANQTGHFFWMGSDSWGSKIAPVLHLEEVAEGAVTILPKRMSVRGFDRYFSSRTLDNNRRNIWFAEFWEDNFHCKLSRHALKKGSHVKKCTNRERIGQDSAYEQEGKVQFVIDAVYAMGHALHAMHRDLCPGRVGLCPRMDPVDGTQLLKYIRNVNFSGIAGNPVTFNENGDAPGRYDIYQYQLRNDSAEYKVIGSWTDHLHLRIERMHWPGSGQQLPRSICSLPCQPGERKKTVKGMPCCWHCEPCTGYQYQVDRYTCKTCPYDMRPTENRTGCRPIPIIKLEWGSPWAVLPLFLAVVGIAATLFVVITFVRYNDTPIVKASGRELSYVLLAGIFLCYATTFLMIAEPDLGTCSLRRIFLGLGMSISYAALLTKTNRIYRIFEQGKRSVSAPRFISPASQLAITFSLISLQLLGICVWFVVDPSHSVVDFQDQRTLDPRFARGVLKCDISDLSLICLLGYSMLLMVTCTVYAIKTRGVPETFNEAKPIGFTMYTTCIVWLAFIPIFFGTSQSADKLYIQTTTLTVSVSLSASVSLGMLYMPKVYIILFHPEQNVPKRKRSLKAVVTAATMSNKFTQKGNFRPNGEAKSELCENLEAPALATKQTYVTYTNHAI

Row | SMILES | EC50 (mGlu4; [5]) [nM] | EC50 (mGlu8; [5]) [nM] | EC50 (mGlu6; [5]) [nM] | EC50 (mGlu7; [5]) [nM] | agonist or antagonist activity on group I and II mGlu receptors ([1]; at 100 μM) | effect at mGlu1/5 receptors (mGlu1/5 receptors) | experimental pKa3 ([2]; second acidity of (thio)phosphonate) | experimental pKa4 ([2]; α-ammonium group) | EC50 (mGlu4R) [nM] | mGlu2 receptor antagonist activity (mGlu2 receptor) | EC50 (mGlu4) [nM] | EC50 (mGlu8) [nM] | EC50 (mGlu6) [nM] | EC50 (mGlu7) [nM] | selectivity among group III mGlu receptor subtypes (group III mGlu receptors [3]) | activity relative to L-AP4 (1) (group III mGlu receptors [3]; on all subtypes, Student's paired T test P<0.05) | agonist or antagonist activity on group I and II mGlu receptors [1] | activity compared to glutamate at group III mGlu receptors (group III mGlu receptors [4])
1 | N[C@@H](CCP(=O)(O)O)C(=O)O [L-AP4, L(+)-2-Amino-4-phosphonobutyric Acid] | 80 ± 17 | 128 ± 19 | 2080 ± 380 | 440000 ± 120000 | no agonist or antagonist activity | no effect | 6.88 | 9.90 | 320 | modest mGlu2 receptor antagonist | – | – | – | – | – | – | – | –
2 | N[C@@H](CCP(O)(O)=S)C(=O)O [L-thioAP4, L(+)-2-Amino-4-thiophosphonobutyric acid] | – | – | – | – | – | no effect | – | – | – | – | 39 | 54 | 730 | 197000 | not subtype selective | about two fold | no agonist or antagonist activity | –
3 | N[C@@H](CCS(=O)(=O)O)C(=O)O [L-homocysteic acid] | – | – | – | – | – | – | – | – | – | – | – | – | – | – | – | – | – | no enhanced activity compared to glutamate
